In experiment [1] the test system is IL-6. As to the kind of experiment: LPS-induced IL-6 secretion in primary human monocyte-derived macrophages (ELISA). Type of experiment: cell-based. Details: Donor 1 IL-6 Measurements Mean: unit not given here. The conditions noted are these: for Donor 1 IL-6 Measurements Mean / Donor 2 IL-6 Measurements Mean / Donor 3 IL-6 Measurements Mean: LPS, baseline subtracted. On the procedure: (§1) Primary human PMBC derived macrophages were seeded on day 0 at 3.0×10^4 cells per well in 96-well microplates (ThermoFisher) in Dulbecco's Modified Eagle Medium (DMEM) (Gibco) supplemented with penicillin-streptomycin (Hyclone) and 10% heat inactivated fetal bovine serum (HI-FBS) (Atlanta Bio) and incubated overnight at 37° C., 5% CO2. On day 1, cells were washed once with 150 μl per well DPBS (Gibco) and treated with 75 μl of: • a. […] The same medium described above with one amino acid at various concentrations including complete dropout. […] On day 3, the supernatant was collected and immediately frozen in −80° C. freezer. Cells were washed once with 150 μl DPBS and viability was assessed using the WST-8 Cell Proliferation Cytotoxicity Assay (Dojindo). […] Protein levels in supernatant samples were analyzed by ELISA for IL-6 and TNFα using commercially available kits (R&D Systems) according to manufacturer-supplied protocols.
(In general: In an ELISA, binding on a coated surface is turned into a signal by an enzyme label.)

A further experiment has as its system TNFα. As to the kind of experiment: LPS-induced TNF-α secretion in primary human monocyte-derived macrophages (ELISA). In kind it is cell-based. The conditions noted are these: for TNF-α Measurements Mean: LPS, baseline subtracted; for effect on LPS-induced TNF-α secretion: Two Way ANOVA Dunnett. Here is the method:
as §1

Experiment [2] concerns IL-6. As to the kind of experiment: Secreted IL-6 in HLMVEC treated with TNF-α (FirePlex). Type of experiment: cell-based, human. The conditions noted are these: HLMVEC + 0.5 ng/mL TNF-α, 24 h; amino acids 20x HMDB, Nac/Cit/Car 5 mM as bracketed. On the procedure:
(§2) Primary Human Lung Microvascular Endothelial Cells (HLMVEC; Lonza) were seeded at 6,000 cells per well in Endothelial Cell Growth Basal Medium-2 (Lonza) supplemented with Fetal Bovine Serum (FBS; Lonza), human EGF (Lonza), human VEGF (Lonza), R3-Insulin-like Growth Factor-1 (Lonza), ascorbic acid (Lonza), hydrocortisone (Lonza), human FGF-beta (Lonza), and gentamicin/amphotericin-b (Lonza) in a 96-well plate (Thermo Fisher). The cells were incubated for 45 minutes at room temperature, then incubated overnight at 37° C./5% CO2.
(§3) Following overnight incubation, cell were washed once with 150 μL of Dulbecco's phosphate buffered saline (DPBS; Gibco), and then treated with Endothelial Basal Medium MCB-131 (amino acid, glucose, sodium pyruvate, and phenol red free; US Biologicals) containing a defined custom amino acid concentration based on physiological concentrations in blood of patients with SCD (thus recapitulating observed metabolic imbalances such as the depletion of certain essential amino acids including arginine and aspartate and enrichment of certain non-essential amino acids including glutamate and asparagine), dialyzed FBS (Hyclone), human EGF (Lonza), human VEGF (Lonza), R3-Insulin-like Growth Factor-1 (Lonza), ascorbic acid (Lonza), hydrocortisone (Lonza), human FGF-beta (Lonza), and gentamicin/amphotericin-b (Lonza), glucose, 10 mM HEPES, sodium pyruvate, and sodium bicarbonate supplemented with one of the following: • a. PBS (vehicle control), • b. 0.5 ng/mL Tumor Necrosis Factor alpha (TNFα) and PBS, or; • c. 0.5 ng/mL TNF-α and amino acid treatments at 20× mean physiological concentrations in plasma based on values published in the Human Metabolome Database (HMDB) in PBS.
Supernatants were analyzed for IL-6 concentrations using a Human Cytokines FirePlex-HT Panel 1 kit (abcam) according to the manufacturer-supplied instructions. Particles were imaged on a high content imager (Molecular Devices), and results were interpolated from a standard curve with FirePlex Analysis Workbench Software (abcam) according manufacturer's recommendations.

Another experiment concerns ICAM-1. In words: ICAM-1 cell integrated intensity in HLMVEC treated with TNF-α (immunofluorescence). In kind it is cell-based, human. Particulars: HLMVEC + 0.5 ng/mL TNF-α, 24 h; amino acids 20x HMDB, Nac/Cit/Car 5 mM as bracketed. On the procedure: as §2, §3
(§4) After 24 hours of treatment, cells were washed once with 150 μL of DPBS (Gibco), then fixed with 4% paraformaldehyde. Following fixation, cells were stained with anti-ICAM-1 [MEM-111] (mouse IgG2a anti-human; abcam) and anti-VCAM1 [1.4C3] (mouse IgG1, K anti-human; abcam) primary antibodies at 1000×, and 100× dilutions respectively. Cells were then stained with Goat anti-Mouse IgG2a Cross-Adsorbed Secondary Antibody, Alexa Fluor 594 (Invitrogen) and Goat anti-Mouse IgG1 Cross-Adsorbed Secondary Antibody, Alexa Fluor 647 (Invitrogen) secondary antibodies. Nuclei were stained with Hoechst 3342 (Life Technologies).
(§5) Antibody binding was detected by fluorescence microscopy using a high content imager (Molecular Devices). Images were analyzed using MetaXpress 6 software to determine the integrated intensity per cell for each wavelength corresponding to ICAM-1 or VCAM-1.

A further experiment deals with VCAM-1. As to the kind of experiment: VCAM-1 cell integrated intensity in HLMVEC treated with TNF-α (immunofluorescence). Particulars: HLMVEC + 0.5 ng/mL TNF-α, 24 h; amino acids 20x HMDB, Nac/Cit/Car 5 mM as bracketed. Type of experiment: cell-based, human. Here is the method: as §2, §3, §4, §5
The next experiment concerns HLMVEC. In words: META-rank score, composite of VCAM1, ICAM1 and IL6 in the HLMVEC model. In kind it is cell-based, human. Particulars: HLMVEC + TNF-α; lower score = more optimal; 20x HMDB / 5 mM. On the procedure:
The ability of single amino acids and combinations to simultaneously impact these phenotypes was measured by a META-rank score (Tables 17 and 18). META-rank score is a composite measure that considers the optimal impact on all 3 phenotypes (e.g. decrease VCAM1, ICAM1, and IL6) in the HLMVEC model.

Where [3] appears, read: Donor 2, Conc. 66 μM (baseline).
Where [4] appears, read: Donor 2, Conc. 153 μM (baseline).
Where [5] appears, read: Donor 2, Conc. 234 μM (baseline).

The structures appear in SMILES notation.

Consider `CC[C@H](C)[C@H](N)C(=O)O` [Isoleucine], for which the “Donor 1 IL-6 Measurements Mean” value with IL-6 [1] (Conc. 66 μM (baseline)) is reported as 0; in the experiment with IL-6 [1] (Conc. 1328 μM) it was 25.98; with IL-6 [1] (Conc. 3320 μM), −15.8843; with IL-6 [1] (Conc. 6639 μM), −218.332. The “Donor 2 IL-6 Measurements Mean” value with IL-6 [1] (setting [3]) is 0; in the experiment with IL-6 [1] (Donor 2, Conc. 1328 μM) it was −2.318; with IL-6 [1] (Donor 2, Conc. 3320 μM), 2.305; in the experiment on IL-6 [1] (Donor 2, Conc. 6639 μM) it was −1.774. For the same compound, the “Donor 3 IL-6 Measurements Mean” value was −6.69 in the experiment with IL-6 [1] (Conc. 66 μM), −28.9897 with IL-6 [1] (Conc. 1328 μM), 0 in the experiment on IL-6 [1] (Conc. 3320 μM) and −16.3663 in the experiment with IL-6 [1] (Conc. 6639 μM). In addition, the “TNF-α Measurements Mean” value is listed as 0 in the experiment on TNFα (Donor 1, Conc. 66 μM (baseline)); −42.68 in the experiment on TNFα (Donor 1, Conc. 1328 μM); −96.3 in the experiment on TNFα (Donor 1, Conc. 3320 μM); −40.95 with TNFα (Donor 1, Conc. 6639 μM); 4.74E−15 with TNFα (setting [3]); 2.919 in the experiment with TNFα (Donor 2, Conc. 1328 μM). Moreover, the “TNF-α Measurements Mean” value in the experiment with TNFα (Donor 2, Conc. 3320 μM) was 10.26; in the experiment on TNFα (Donor 2, Conc. 6639 μM) it was 19.26; with TNFα (Donor 3, Conc. 66 μM (baseline)) it was −2.4E−15; in the experiment on TNFα (Donor 3, Conc. 1328 μM), −6.23; with TNFα (Donor 3, Conc. 3320 μM), 3.309; with TNFα (Donor 3, Conc. 6639 μM) it was −1.66. Besides, the “effect on LPS-induced TNF-α secretion” value in the experiment with TNFα (Donor 2) is “increased”.

Consider `CC(C)C[C@H](N)C(=O)O` [Leu], for which the “Secreted IL6 Median” value with IL-6 [2] is given as −0.491. Besides, the “ICAM-1 Cell Integrated Intensity Median” value with ICAM-1 came out at 0.086. Also, the “VCAM-1 Cell Integrated Intensity Median” value in the experiment on VCAM-1 came out at 0.125. In the experiment on HLMVEC, the “Meta-Rank (Table 18)” value turned out to be 20 and the “Metarank (Table 17)” value is reported as 7.

Consider `CC(C)C[C@H](N)C(=O)O` [Leucine], for which the “Donor 1 IL-6 Measurements Mean” value in the experiment with IL-6 [1] (Conc. 153 μM (baseline)) was 0; with IL-6 [1] (Conc. 3054 μM) it was 244.9743; with IL-6 [1] (Conc. 7635 μM), −69.9873; in the experiment with IL-6 [1] (Conc. 15270 μM), 84.46. For the same compound, the “Donor 2 IL-6 Measurements Mean” value with IL-6 [1] (setting [4]) is on record as 7.11E−15; with IL-6 [1] (Donor 2, Conc. 3054 μM), 29.61; in the experiment with IL-6 [1] (Donor 2, Conc. 7635 μM) it was 30.46; with IL-6 [1] (Donor 2, Conc. 15270 μM) it was 47.6. In addition, in the experiment on IL-6 [1] (Donor 2, Two Way ANOVA Dunnett), the “effect on LPS-induced IL-6 secretion” value is reported as “increased”. Moreover, the “TNF-α Measurements Mean” value with TNFα (Donor 1, Conc. 153 μM (baseline)) is recorded as 0; in the experiment with TNFα (Donor 1, Conc. 3054 μM), 42.04; in the experiment on TNFα (Donor 1, Conc. 7635 μM) it was −23.04; with TNFα (Donor 1, Conc. 15270 μM), −46.21; in the experiment with TNFα (setting [4]) it was 0; with TNFα (Donor 2, Conc. 3054 μM) it was 31.74. Moreover, the “TNF-α Measurements Mean” value in the experiment on TNFα (Donor 2, Conc. 7635 μM) was determined as 41.98; in the experiment with TNFα (Donor 2, Conc. 15270 μM), 46.69. Besides, in the experiment on TNFα (Donor 2), the “effect on LPS-induced TNF-α secretion” value was “increased”.

For the compound `NCCCC[C@H](N)C(=O)O` [Lys], the “Secreted IL6 Median” value with IL-6 [2] is given as 0.132. In addition, in the experiment on ICAM-1, the “ICAM-1 Cell Integrated Intensity Median” value came to 0.064. Further, the “VCAM-1 Cell Integrated Intensity Median” value with VCAM-1 is recorded as 0.025. In the experiment with HLMVEC, the “Meta-Rank (Table 18)” value came out at 15.5 and the “Metarank (Table 17)” value amounted to 29.

Consider `CC(C)[C@H](N)C(=O)O` [Valine], for which the “Donor 1 IL-6 Measurements Mean” value with IL-6 [1] (Conc. 234 μM (baseline)) is 0; in the experiment on IL-6 [1] (Conc. 4684 μM), −85.9843; in the experiment on IL-6 [1] (Conc. 11710 μM), −97.25; with IL-6 [1] (Conc. 23420 μM), −106.268. For the same compound, the “Donor 2 IL-6 Measurements Mean” value is reported as −4.7E−15 with IL-6 [1] (setting [5]); −4.528 in the experiment with IL-6 [1] (Donor 2, Conc. 4684 μM); −1.196 in the experiment with IL-6 [1] (Donor 2, Conc. 11710 μM); 4.396 in the experiment on IL-6 [1] (Donor 2, Conc. 23420 μM). Further, the “Donor 3 IL-6 Measurements Mean” value is listed as 4.26E−14 in the experiment with IL-6 [1] (Conc. 234 μM (baseline)), −30.0609 in the experiment on IL-6 [1] (Conc. 4684 μM), −43.8022 with IL-6 [1] (Conc. 11710 μM) and −29.2004 in the experiment on IL-6 [1] (Conc. 23420 μM). For the same compound, the “TNF-α Measurements Mean” value with TNFα (Donor 1, Conc. 234 μM (baseline)) is 0; with TNFα (Donor 1, Conc. 4684 μM), −40.37; with TNFα (Donor 1, Conc. 11710 μM), −41.77; in the experiment on TNFα (Donor 1, Conc. 23420 μM) it was −14.98; in the experiment with TNFα (setting [5]), −4.7E−15; in the experiment on TNFα (Donor 2, Conc. 4684 μM), −0.00221. In addition, the “TNF-α Measurements Mean” value in the experiment with TNFα (Donor 2, Conc. 11710 μM) is given as −0.835; in the experiment on TNFα (Donor 2, Conc. 23420 μM), −1.251; in the experiment with TNFα (Donor 3, Conc. 234 μM (baseline)), −2.4E−15; with TNFα (Donor 3, Conc. 4684 μM), 0.126; in the experiment on TNFα (Donor 3, Conc. 11710 μM), −2.599; with TNFα (Donor 3, Conc. 23420 μM), 3.688.
